# Source: patent publication US20230130403A1, “METHODS OF TREATMENT WITH S1P RECEPTOR MODULATORS” (PRIOTHERA SAS, priority 2021, published 2023)
# Where two headings read alike, the source gives them in different places.
# Experiments:
# [1] = tested on: patients undergoing allogeneic HSCT for hematological malignancies; assay: Study CKRP203A2105, phase Ib in patients undergoing allogeneic HSCT;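 further: counts of subjects, HLA-matched donor stem cells, transplant on Day 11 following myeloablative chemotherapy conditioning from Day 2 to Day 10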
# From the text: The study population comprised of male or female subjects who were diagnosed with a hematological malignancy and qualified for a standard allogeneic HSCT where HLA matched stem cell source was available. Such malignancies included but were not limited to acute myeloid leukemia (AML), acute lymphoid leukemia (ALL), myelodysplastic syndrome (MDS, chronic lymphoid leukemia (CLL), marginal zone and follicular lymphomas, large-cell lymphoma, lymphoblastic, Burkitt's and other high grade lymphomas; mantle-cell lymphoma, lymphoplasmacytic lymphoma; prolymphocytic leukemia or multiple myeloma.
# HSCT was performed on Day 11. In addition to the investigational treatment with KRP203, the activities included conditioning, standard GvHD prophylaxis, infusion of the stem cells, pre and post-transplant supportive care and follow-up assessments according to the institutional practices. Subjects remained hospitalized for two to five days after bone marrow engraftment occurred. The subsequent study visits were ambulatory or in-house, if needed depending on the health status of the subject.
# Myeloablative conditioning was performed between Day 2 and Day 10 as per SOC using chemotherapy.
# As in Part 1, HSCT was performed on Day 11, all other procedures/visits were same as in Part 1.
# hERG channels = hERG channels (Homo sapiens, UniProt Q12809); assay: hERG channel inhibition in vitro; type: biochemical; conditions: between 0.5 and 10 μM
# From the text: (§1) Based on the available in vitro and in vivo data, except for the potential to cause a negative chronotropic effect and some mild increase in blood pressure, there is no indication that KRP203 would cause arrhythmia or QT prolongation in man.
# [2] = tested on: peripheral lymphocyte counts; assay: Recovery of absolute lymphocyte counts after S1P modulator dosing in healthy volunteers; type: in vivo, human; conditions: single 1 mg FTY720, BAF312 multiple doses for 28 days, single 3 mg KRP203
# Protocol: Mocravimod is particularly preferred. […] A measurable parameter that determines maintenance of the mode of action, i.e., sequestering of lymphocytes in secondary lymphoid organs and bone marrow, is reduction of peripheral lymphocyte counts. Recovery of absolute lymphocyte counts to 80% of normal counts after a single 1 mg dose of FTY720, multiple dose applications of BAF312 for 28 days, or a single 3 mg dose of KRP203 was reached after 8, 7 and more than 10 days, respectively.
# rats [3] = assay: Acute toxicity in rats; type: in vivo
# rats [4] = assay: Repeat-dose toxicity studies in rats; type: in vivo
# From the text: Transitory activation of phagocytic cells and increased secretion of soluble markers by these cells is considered a main contributing factor to smooth muscle hypertrophy/hyperplasia.
# blood pressure = assay: Blood pressure in dogs; type: in vivo, dog
# From the text: as §1
# mice = assay: Acute toxicity in mice; type: in vivo
# eye irritation = assay: Eye irritation; conditions: in vivo
# QT prolongation = QT prolongation in anaesthetized guinea pigs; type: in vivo, guinea pig
# From the text: as §1
# CYP3A4 = CYP3A4 (Homo sapiens, UniProt P08684); assay: Metabolism by CYP enzymes (in vitro data); type: in vitro ADME
# From the text: The weak inhibitory effect of ciclosporin on hepatic CYP3A4 is unlikely to relevantly impact the PK of KRP203.
# [5] = tested on: lymphocyte counts in peripheral blood; assay: Reduction of lymphocyte counts in peripheral blood; conditions: in vivo
# From the text: KRP203 reduces lymphocyte counts in peripheral blood by more than 80%.
# heart rate = assay: Heart rate in isolated rabbit heart or guinea pig
# From the text: as §1
# [6] = molecular target: CYP3A4 via the human PXR receptor (Homo sapiens, UniProt O75469); assay: CYP3A4 induction via PXR; type: in vitro ADME
# [7] = tested on: guinea pig papillary muscle preparation; assay: APD in guinea pig papillary muscle preparation; conditions: concentrations of 3 μM
# From the text: as §1
# dogs = assay: Acute toxicity in dogs; type: in vivo, dog
# Protocol: No mortality was seen following single oral dosing in dogs up to 2000 mg/kg.
# [8] = Part 1, 3 mg KRP203+CsA, n=10, after 30 days of transplant
# [9] = Part 1, 3 mg KRP203+CsA, n=10, from transplant up to 30 days of transplant
# [10] = Part 1, 3 mg KRP203+CsA, n=10, start of treatment until just before transplant
# [11] = Part 1, after 30 days of transplantation
# [12] = Part 1, start of treatment until just before transplant
# [13] = Part 2, 1 mg KRP203+CsA arm, from transplant up to 30 days after transplant
# [14] = Part 2, after 30 days of transplantation
# [15] = Part 2, following 30 days after transplant
# CYP3A4, sequence (P08684 whole entry): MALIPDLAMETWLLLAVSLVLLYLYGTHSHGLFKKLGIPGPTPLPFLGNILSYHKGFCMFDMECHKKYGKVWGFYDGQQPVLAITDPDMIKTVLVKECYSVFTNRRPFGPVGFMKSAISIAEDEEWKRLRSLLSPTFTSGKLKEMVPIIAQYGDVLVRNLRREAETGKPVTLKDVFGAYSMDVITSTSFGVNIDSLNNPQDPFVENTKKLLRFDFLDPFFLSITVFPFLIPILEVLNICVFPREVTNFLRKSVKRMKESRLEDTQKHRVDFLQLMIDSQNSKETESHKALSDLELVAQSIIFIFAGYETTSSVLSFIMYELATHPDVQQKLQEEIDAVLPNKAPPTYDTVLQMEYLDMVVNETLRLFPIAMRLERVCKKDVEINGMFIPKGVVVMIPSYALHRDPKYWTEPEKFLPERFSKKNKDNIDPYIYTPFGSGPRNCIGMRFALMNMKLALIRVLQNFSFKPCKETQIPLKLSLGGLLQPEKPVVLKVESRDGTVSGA
# CYP3A4 via the human PXR receptor, sequence (O75469 whole entry): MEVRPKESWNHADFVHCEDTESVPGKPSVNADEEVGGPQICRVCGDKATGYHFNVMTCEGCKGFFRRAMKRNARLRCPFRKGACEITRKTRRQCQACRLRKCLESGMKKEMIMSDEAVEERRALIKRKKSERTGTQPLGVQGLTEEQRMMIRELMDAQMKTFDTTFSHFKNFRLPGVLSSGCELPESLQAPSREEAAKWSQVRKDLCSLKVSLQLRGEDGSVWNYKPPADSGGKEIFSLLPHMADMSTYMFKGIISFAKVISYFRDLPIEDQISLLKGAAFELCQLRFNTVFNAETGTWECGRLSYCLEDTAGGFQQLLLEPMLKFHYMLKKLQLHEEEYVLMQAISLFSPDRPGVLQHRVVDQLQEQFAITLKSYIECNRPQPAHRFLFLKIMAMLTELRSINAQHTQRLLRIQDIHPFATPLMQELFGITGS
# hERG channels, sequence (Q12809 whole entry): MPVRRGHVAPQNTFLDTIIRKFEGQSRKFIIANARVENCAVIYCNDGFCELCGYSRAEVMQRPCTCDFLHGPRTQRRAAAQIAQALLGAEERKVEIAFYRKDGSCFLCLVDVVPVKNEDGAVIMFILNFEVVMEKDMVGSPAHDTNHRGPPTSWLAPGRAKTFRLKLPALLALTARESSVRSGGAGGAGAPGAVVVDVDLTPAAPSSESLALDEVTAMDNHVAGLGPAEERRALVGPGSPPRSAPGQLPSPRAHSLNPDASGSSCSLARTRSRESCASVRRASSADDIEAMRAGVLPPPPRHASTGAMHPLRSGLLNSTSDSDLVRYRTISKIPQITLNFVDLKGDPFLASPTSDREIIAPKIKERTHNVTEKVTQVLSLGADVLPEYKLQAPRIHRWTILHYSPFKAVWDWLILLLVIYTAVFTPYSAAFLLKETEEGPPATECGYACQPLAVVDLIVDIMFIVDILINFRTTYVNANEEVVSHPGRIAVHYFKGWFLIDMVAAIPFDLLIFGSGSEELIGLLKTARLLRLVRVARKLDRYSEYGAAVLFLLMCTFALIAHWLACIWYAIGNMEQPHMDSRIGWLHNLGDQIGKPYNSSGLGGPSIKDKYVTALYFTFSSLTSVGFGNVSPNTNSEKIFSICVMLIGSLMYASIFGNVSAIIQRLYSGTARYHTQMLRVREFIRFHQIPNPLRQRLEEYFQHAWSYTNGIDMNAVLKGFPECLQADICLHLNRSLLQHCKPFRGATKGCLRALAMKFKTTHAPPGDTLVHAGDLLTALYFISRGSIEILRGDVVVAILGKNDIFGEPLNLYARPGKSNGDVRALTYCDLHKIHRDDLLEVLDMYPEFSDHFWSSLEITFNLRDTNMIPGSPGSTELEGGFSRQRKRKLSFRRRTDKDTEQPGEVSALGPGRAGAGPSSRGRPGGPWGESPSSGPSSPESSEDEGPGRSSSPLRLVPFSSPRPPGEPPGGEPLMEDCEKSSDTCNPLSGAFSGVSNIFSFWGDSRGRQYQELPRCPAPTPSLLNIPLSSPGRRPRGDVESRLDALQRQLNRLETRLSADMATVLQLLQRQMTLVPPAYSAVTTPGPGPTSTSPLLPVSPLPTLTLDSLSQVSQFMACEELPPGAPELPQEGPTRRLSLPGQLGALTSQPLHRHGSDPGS
smiles,measurement,setting,value
"NC(CO)(CO)CCc1ccc(Sc2cccc(OCc3ccccc3)c2)cc1Cl [KRP203, 2-amino-2-[4-(3-benzyloxyphenylthio)-2-chlorophenyl] ethyl-propane-1,3-diol]",subjects with AEs that resulted in discontinuation of study drug,[1]; 1 mg KRP203+CsA arm,33%
same,safety profile between dose groups,[1]; 1 mg/day plus CsA or 3 mg/day plus CsA or TAC,comparable between the 1 mg and 3 mg mocravimod dose groups
same,subjects with AEs that resulted in discontinuation of study drug,[1]; 3 mg KRP203+CsA arm,29%
same,subjects with AEs that resulted in discontinuation of study drug,[1]; 3 mg KRP203+Tac arm,14%
same,"subjects with AEs, SOC general disorders and administration site conditions",[1]; [8],60%
same,"subjects with AEs, SOC immune system disorders",[1]; [8],100%
same,"subjects with AEs, SOC infection and infestations",[1]; [8],50%
same,subjects with acute GvHD in intestine,[1]; [8],30%
same,subjects with acute GvHD in skin,[1]; [8],30%
same,subjects with chronic GvHD,[1]; [8],70%
same,subjects with chronic GvHD in intestine,[1]; [8],20%
same,subjects with chronic GvHD in liver,[1]; [8],50%
same,subjects with chronic GvHD in skin,[1]; [8],30%
same,subjects with diarrhea,[1]; [8],20%
same,subjects with edema peripheral,[1]; [8],40%
same,subjects with edema peripheral suspected related to study treatment,[1]; [8],20%
same,subjects with eyelid edema,[1]; [8],20%
same,subjects with nausea,[1]; [8],20%
same,subjects with rash,[1]; [8],20%
same,"subjects with AEs, SOC gastrointestinal disorder",[1]; [9],70%
same,"subjects with AEs, SOC immune system disorders",[1]; [9],30%
same,"subjects with AEs, SOC nervous system disorders",[1]; [9],30%
same,"subjects with AEs, SOC respiratory, thoracic and mediastinal disorders",[1]; [9],40%
same,"subjects with AEs, SOC vascular disorders",[1]; [9],30%
same,subjects with acute GvHD in intestine,[1]; [9],30%
same,subjects with capillary leak syndrome (suspected related to study treatment),[1]; [9],20%
same,subjects with nausea,[1]; [9],20%
same,subjects with pleural effusion (suspected related to study treatment),[1]; [9],20%
same,subjects with vomiting,[1]; [9],60%
same,"subjects with AEs, SOC gastrointestinal disorders",[1]; [10],60%
same,subjects with bradycardia,[1]; [10],20%
same,subjects with bradycardia suspected related to study treatment,[1]; [10],20%
same,subjects with hypertension suspected related to study treatment,[1]; [10],10%
same,subjects with nausea,[1]; [10],20%
same,subjects with sinus arrest suspected related to study treatment,[1]; [10],10%
same,subjects with vomiting,[1]; [10],40%
same,subjects reporting AEs,"[1]; Part 1, after 30 days of study treatment",all subjects
same,"subjects with serious AEs suspected related (cystoid macular edema, dyspnea exertional, edema peripheral)","[1]; Part 1, after 30 days of transplant, mild severities",10%
same,subjects with SAEs,[1]; [11],40%
same,"subjects with SAEs, general disorders and administration site conditions",[1]; [11],30%
same,"subjects with SAEs, infections and infestations",[1]; [11],20%
same,"subjects with SAEs, neoplasms benign, malignant and unspecified",[1]; [11],20%
same,"subjects with serious AEs (acute GvHD, dyspnea and weight increased)","[1]; Part 1, from transplant up to 30 days after the transplant",20%
same,subjects reporting AEs,[1]; [12],seven subjects
same,subjects with serious AE of vomiting,[1]; [12],10%
same,subjects reporting AEs,"[1]; Part 1, up to 30 days of transplant",nine subjects
same,subjects with serious AEs of blepharitis and cystoid macular edema,[1]; [13],10%
same,"subjects with serious AEs suspected related (blepharitis Grade 2, cystoid macular edema Grade 3)",[1]; [13],17%
same,subjects with at least one AE,"[1]; Part 2, both treatment arms (n=13), in each of the three periods",100%
same,subjects with serious AE acute GvHD in intestine,[1]; [14],23%
same,subjects with serious AE diarrhea,[1]; [14],15%
same,subjects with serious AE general physical health deterioration,[1]; [14],15%
same,"incidence each of febrile bone marrow aplasia, hepatic failure, Hodgkin's disease, macular ischemia and retinal ischemia (related SAEs)",[1]; [15],8%
same,subjects with serious AEs suspected related to study treatment,[1]; [15],31%
same,serious AEs,"[1]; Part 2, start of treatment until just before transplant",No serious AE
same,study discontinuation due to AEs,[1]; all 23 treated subjects,13%
same,study discontinuation due to death,[1]; all 23 treated subjects,9%
same,deaths reported,"[1]; overall, during the study, one-year and long-term follow-up period",seven
same,inhibition of hERG channels,hERG channels,slight inhibitory potential
same,Recovery of absolute lymphocyte counts to 80% of normal counts,[2],more than 10 days
same,intravenous dose producing lethality,rats [3],above 50 mg/kg
same,oral dose producing lethality,rats [3],1000 mg/kg
same,local tolerability in the gastro-intestinal tract,rats [4]; oral dosing in rats or dogs up to 26 or 13 weeks,no indication for impaired local tolerability
same,hepatic effects,"rats [4]; rats and mice, not in dogs",mild and did only occur at high dose levels
same,no mortality up to daily dose,"rats [4]; rats, up to 26-week",≤ 50 mg/kg
same,"potential to increase blood pressure, extrapolated exposure",blood pressure,20.3 µM
same,intravenous dose producing lethality,mice,above 50 mg/kg
same,eye irritation,eye irritation,marked eye irritation
same,QT prolongation,QT prolongation,No indication for QT prolongation
same,metabolism by CYP enzymes,CYP3A4,only to a limited extent
same,metabolism by CYP enzymes,CYP3A4; listed as Mocravimod,mainly metabolized by the enzyme CYP3A4
same,reduction of lymphocyte counts in peripheral blood,[5],more than 80%
same,"potential to decrease heart rate, extrapolated exposure",heart rate,20.1 µM
same,no significant induction of CYP3A4 via the human PXR receptor up to concentration,[6],≤ 6.15 µM
same,APD prolongation,[7],No APD prolongation
same,no mortality following single oral dosing up to,dogs,up to 2000 mg/kg
